# Data reported in patent US20080063599A1, “Compounds Which Can Be Used To Diagnose And Monitor Diseases Associated With The Formation Of Amyloid Protein Fibrils” (priority 2002, published 2008).
# Test system: amyloid plaques in mice brains
# Assay: MicroPET images of transgenic mice
# Assay type: in vivo
# Settings: Tg2576 mice; dynamic microPET, total acquisition time 55-77 min
# Protocol: All the animal experiments were performed according to the established animal protocol. The transgenic mice (Tg2576) were anaesthetised via intravenous injection with a 40 uL solution of ketamine and xylazine (4:1) before the injection of the tracer radiolabelled with ^18F: 5-[^18F]-fluoro-8-hydroxy-7-iodoquinoline. The mice were placed in supine position and scanned using microPET. A dynamic microPET study was performed using 15 planes and 15 to 16 frames (dynamic sequence: 6×30 s, 4×1 min, 2×5 min, 2×10 min, and 1-2×20 min) for a total acquisition time of 55-77 min. Images were reconstructed using the appropriate algorithms (Filter-back projection algorithm) and a cut-off frequency of 0.5. Images were reconstructed by means of a filtered iteration resulting in an image resolution of 1.8 mm and a volumetric resolution of about 6 mm^3. Transverse planes were reoriented to obtain the coronal and axial sections of the mice brains. Regional uptake is expressed in activity per gram of tissue.
smiles,measurement,value
Oc1c(I)cc([18F])c2cccnc12 [5-[^18F]-fluoro-8-hydroxy-7-iodoquinoline],detection of amyloid plaques in microPET images,adequate detection of the amyloid plaques
